What was measured:
[1] = target: T1, PI3K α (Homo sapiens, UniProt P42336); experiment: PI3-Kinase Promega ADP-Glo Max assay; type: biochemical; conditions: 20 nM kinase, 3 mM ATP, 500 uM diC8-PtdInsP
T1 construct: purchased Millipore
In short: (§1)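 Human class I PI3K (20 nM α or δ, 40 nM β) pre-incubated 15 min with compound in HEPES pH 7.4 buffer with MgCl2, then reacted 2 h at room temperature with 3 mM ATP and 500 uM diC8-PtdInsP. ADP measured by ADP-Glo Max luminescence; % inhibition fitted to 4-parameter logistic for IC50.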

[2] = target: T2, PI3K β (Homo sapiens, UniProt P42338); experiment: PI3-Kinase Promega ADP-Glo Max assay; type: biochemical; conditions: 40 nM kinase, 3 mM ATP, 500 uM diC8-PtdInsP
T2 construct: purchased Millipore
In short: as §1

[3] = target: T3, PI3K δ (Homo sapiens, UniProt O00329); experiment: PI3-Kinase Promega ADP-Glo Max assay; type: biochemical; conditions: 20 nM kinase, 3 mM ATP, 500 uM diC8-PtdInsP
T3 construct: purchased Millipore
In short: as §1

[4] = target: T4, PI3K γ (Homo sapiens, UniProt P48736); experiment: PI3-Kinase Promega ADP-Glo Max assay; type: biochemical; conditions: 40 nM kinase, 3 mM ATP, 500 uM diC8-PtdInsP
T4 construct: purchased Millipore
In short: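 Human class I PI3K reactions ran 2 hours at room temperature, followed by stop solution (40 min) and detection mix (1 hour) before luminescence reading.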

[5] = target: T5, Raw264.7 p110 γ (Mus musculus, UniProt Q9JHG7); experiment: Raw264.7 p110 γ cellular assay (phospho-AKT); type: cell-based; conditions: serum-starved RAW264.7 cells stimulated with C5a
T5 construct: reduction of phospho-AKT in stimulated RAW 264.7 cells; endogenous in cells; host or cells: RAW264.7 macrophages
Source text: (b) PI3K-γ Selective Assay
Briefly, serum-starved PAW264.7 cells are stimulated with a known GPCR agonist C5a. […] Cells can be treated with test compounds prior to, simultaneously with, or subsequent to the stimulation by C5a. RAW 264.7 cells respond to the complement component fragment C5a through activation of the C5a receptor, and the C5a receptor activates macrophages and induces cell migration.

[6] = target: RAJI p110 δ (Homo sapiens, UniProt O00329); experiment: RAJI p110 δ cellular assay (phospho-AKT);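 note: potency based on lowered phosphorylated AKT in RAJI cells, as a readout of PI3K-δ dependent B-cell receptor signaling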
RAJI p110 δ, sequence (O00329 whole entry): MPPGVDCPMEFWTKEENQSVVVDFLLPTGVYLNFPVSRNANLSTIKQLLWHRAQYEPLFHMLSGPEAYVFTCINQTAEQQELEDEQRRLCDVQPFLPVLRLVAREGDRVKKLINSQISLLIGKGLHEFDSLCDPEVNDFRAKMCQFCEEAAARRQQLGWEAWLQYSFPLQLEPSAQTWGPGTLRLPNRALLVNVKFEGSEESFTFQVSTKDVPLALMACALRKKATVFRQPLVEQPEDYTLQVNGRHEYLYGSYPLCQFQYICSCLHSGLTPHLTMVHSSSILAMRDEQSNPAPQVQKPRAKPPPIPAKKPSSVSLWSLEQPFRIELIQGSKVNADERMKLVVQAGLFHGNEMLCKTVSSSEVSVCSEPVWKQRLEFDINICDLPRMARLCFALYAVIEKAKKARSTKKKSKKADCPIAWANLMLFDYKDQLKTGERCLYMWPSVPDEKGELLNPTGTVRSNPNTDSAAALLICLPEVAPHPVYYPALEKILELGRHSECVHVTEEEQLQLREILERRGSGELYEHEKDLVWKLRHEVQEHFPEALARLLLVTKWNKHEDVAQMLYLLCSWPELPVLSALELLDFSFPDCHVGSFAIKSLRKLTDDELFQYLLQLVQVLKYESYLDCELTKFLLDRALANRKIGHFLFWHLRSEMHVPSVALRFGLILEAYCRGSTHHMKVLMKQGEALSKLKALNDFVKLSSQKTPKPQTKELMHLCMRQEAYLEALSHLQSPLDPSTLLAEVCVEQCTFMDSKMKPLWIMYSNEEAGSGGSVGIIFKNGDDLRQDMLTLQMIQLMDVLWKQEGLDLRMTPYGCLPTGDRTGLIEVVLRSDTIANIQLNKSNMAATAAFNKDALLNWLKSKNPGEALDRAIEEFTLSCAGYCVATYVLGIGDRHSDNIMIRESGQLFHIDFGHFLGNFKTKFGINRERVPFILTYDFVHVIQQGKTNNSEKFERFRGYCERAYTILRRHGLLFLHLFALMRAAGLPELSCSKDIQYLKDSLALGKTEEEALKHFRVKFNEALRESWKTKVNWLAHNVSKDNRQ
RAJI p110 δ, sequence (P27986 whole entry partner): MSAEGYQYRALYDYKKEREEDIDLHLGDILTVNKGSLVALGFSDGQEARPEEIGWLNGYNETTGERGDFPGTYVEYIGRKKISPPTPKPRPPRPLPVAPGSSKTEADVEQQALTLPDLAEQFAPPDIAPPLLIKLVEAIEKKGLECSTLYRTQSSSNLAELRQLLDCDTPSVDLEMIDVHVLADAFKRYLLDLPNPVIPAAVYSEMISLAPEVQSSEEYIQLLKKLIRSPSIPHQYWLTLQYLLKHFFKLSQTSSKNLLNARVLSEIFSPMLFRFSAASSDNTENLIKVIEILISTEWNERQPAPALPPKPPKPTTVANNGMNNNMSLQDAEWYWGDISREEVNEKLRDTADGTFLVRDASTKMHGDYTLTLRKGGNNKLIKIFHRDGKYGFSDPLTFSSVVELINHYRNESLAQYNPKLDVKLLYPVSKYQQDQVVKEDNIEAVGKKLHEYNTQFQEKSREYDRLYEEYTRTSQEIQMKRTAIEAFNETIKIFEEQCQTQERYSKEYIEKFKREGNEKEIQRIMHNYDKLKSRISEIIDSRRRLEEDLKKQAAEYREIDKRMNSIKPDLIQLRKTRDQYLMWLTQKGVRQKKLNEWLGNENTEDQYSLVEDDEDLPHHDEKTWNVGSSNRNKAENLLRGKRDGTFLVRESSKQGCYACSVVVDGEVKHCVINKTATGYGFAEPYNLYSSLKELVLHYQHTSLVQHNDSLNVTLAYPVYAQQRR
Source text: (a) PI3K-δ Selective Assay
Reduction of phospho-AKT is indicative of compounds that may inhibit B-cell proliferation and function in certain diseases.

T4 sequence (P48736 whole entry): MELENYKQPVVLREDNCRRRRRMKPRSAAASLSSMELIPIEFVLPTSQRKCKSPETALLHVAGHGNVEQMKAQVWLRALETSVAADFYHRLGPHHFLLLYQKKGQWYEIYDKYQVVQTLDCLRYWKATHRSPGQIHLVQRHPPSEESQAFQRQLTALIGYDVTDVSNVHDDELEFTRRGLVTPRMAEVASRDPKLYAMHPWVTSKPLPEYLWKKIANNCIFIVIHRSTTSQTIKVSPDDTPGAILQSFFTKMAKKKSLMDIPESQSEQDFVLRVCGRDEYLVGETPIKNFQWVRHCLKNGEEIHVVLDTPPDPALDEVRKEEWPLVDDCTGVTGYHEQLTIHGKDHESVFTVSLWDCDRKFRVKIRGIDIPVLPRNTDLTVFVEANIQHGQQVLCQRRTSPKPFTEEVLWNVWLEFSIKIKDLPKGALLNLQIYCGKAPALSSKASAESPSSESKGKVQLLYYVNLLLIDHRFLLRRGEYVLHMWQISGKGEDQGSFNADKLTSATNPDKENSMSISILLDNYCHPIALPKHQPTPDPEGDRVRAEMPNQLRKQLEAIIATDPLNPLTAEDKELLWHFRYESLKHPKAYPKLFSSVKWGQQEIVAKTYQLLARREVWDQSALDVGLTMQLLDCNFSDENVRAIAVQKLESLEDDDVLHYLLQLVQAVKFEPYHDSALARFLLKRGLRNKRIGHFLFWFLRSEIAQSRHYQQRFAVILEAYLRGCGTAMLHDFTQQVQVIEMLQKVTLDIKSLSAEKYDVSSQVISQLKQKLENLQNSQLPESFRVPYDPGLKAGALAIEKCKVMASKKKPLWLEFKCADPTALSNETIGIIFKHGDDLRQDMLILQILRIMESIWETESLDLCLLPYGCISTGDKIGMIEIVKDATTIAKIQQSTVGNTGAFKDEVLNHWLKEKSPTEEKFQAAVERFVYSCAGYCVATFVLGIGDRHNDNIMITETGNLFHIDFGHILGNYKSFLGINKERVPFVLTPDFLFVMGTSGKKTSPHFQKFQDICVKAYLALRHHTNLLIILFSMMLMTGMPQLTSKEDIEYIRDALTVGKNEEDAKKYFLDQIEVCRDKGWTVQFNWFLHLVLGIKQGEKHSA
T3 sequence (O00329 whole entry): as the sequence (O00329 whole entry) above
T3 sequence (P27986 whole entry partner): as the sequence (P27986 whole entry partner) above
T5 sequence (Q9JHG7 whole entry): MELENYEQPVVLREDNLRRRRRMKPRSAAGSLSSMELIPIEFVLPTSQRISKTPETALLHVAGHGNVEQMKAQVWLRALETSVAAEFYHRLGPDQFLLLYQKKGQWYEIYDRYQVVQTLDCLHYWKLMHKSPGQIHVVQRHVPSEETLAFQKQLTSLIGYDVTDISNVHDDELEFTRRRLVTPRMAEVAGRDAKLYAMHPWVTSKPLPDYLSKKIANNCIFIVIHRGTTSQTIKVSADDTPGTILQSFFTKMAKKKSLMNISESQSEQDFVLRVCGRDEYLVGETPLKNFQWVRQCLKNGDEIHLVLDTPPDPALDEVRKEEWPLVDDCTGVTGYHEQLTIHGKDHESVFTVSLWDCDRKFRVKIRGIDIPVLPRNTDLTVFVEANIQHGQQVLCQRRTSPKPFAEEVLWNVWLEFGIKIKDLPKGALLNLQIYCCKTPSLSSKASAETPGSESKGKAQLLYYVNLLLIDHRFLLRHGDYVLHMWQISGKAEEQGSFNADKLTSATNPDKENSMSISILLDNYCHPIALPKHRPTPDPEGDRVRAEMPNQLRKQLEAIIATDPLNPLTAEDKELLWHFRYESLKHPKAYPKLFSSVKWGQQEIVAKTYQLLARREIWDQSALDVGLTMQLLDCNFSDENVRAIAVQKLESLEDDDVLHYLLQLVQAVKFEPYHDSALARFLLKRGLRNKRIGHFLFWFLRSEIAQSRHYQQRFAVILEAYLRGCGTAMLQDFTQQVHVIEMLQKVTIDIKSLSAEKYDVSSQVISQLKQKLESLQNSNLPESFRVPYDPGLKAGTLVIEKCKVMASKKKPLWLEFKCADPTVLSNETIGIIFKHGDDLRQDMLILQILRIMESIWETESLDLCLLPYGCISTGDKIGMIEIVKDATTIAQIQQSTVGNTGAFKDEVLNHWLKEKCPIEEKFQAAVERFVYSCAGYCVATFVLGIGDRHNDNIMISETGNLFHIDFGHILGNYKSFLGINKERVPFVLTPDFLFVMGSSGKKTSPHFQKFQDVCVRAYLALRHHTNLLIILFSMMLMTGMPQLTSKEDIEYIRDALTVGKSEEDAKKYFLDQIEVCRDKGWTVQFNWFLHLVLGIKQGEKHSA

SMILES	IC50 [1] [nM]	IC50 [2] [nM]	IC50 [3] [nM]	IC50 [4] [nM]	IC50 [5] [nM]	IC50 [6] [nM]
COc1cc(-c2cccc3cc([C@H](C)NC(=O)c4c(N)nn5cccnc45)n(C4CC4)c(=O)c23)ccn1 [Compound 150]	1000 to 10000	1000 to 10000	1000 to 10000	1000 to 10000	< 100	100 to 1000
Cc1cc(C)n2nc(N)c(C(=O)N[C@@H](C)c3cc4cccc(Cl)c4c(=O)n3-c3ccccc3)c2n1 [Compound 152]	1000 to 10000	100 to 1000	1000 to 10000	100 to 1000	< 100	< 100
C[C@H](NC(=O)c1c(N)nn2cccnc12)c1cc2cccc(C#CCN)c2c(=O)n1-c1ccccc1 [Compound 153]	1000 to 10000	1000 to 10000	1000 to 10000	100 to 1000	100 to 1000	100 to 1000
C[C@H](NC(=O)c1c(N)nn2cccnc12)c1cc2cccc(C#CCCN)c2c(=O)n1-c1ccccc1 [Compound 154]	1000 to 10000	1000 to 10000	1000 to 10000	100 to 1000	100 to 1000	100 to 1000
C=CC(=O)NCC#Cc1cccc2cc([C@H](C)NC(=O)c3c(N)nn4cccnc34)n(-c3ccccc3)c(=O)c12 [Compound 155]	1000 to 10000	1000 to 10000	100 to 1000	< 100	< 100	< 100
C[C@H](NC(=O)c1c(N)nn2cccnc12)c1cc2cccc(C#CCNC(=O)C3CC(=O)CC(=O)C3)c2c(=O)n1-c1ccccc1 [Compound 156]	1000 to 10000	1000 to 10000	100 to 1000	< 100	100 to 1000	1000 to 10000
C[C@H](NC(=O)c1c(N)nn2cccnc12)c1cc2cccc(C#CCNC(=O)[C@@H]3CCC(=O)O3)c2c(=O)n1-c1ccccc1 [Compound 157]	100 to 1000	100 to 1000	100 to 1000	< 100	< 100	< 100
C[C@H](NC(=O)c1c(N)nn2cccnc12)c1cc2cccc(C#CCNC(=O)[C@H]3CCC(=O)O3)c2c(=O)n1-c1ccccc1 [Compound 158]	1000 to 10000	1000 to 10000	1000 to 10000	< 100	< 100	< 100
C[C@H](NC(=O)c1c(N)nn2cccnc12)c1cc2cccc(C#CCNC(=O)C3CCCCC3)c2c(=O)n1-c1ccccc1 [Compound 159]	1000 to 10000	1000 to 10000	1000 to 10000	100 to 1000	< 100	< 100
C=CC(=O)NCCC#Cc1cccc2cc([C@H](C)NC(=O)c3c(N)nn4cccnc34)n(-c3ccccc3)c(=O)c12 [Compound 160]	1000 to 10000	1000 to 10000	1000 to 10000	100 to 1000	< 100	< 100
C[C@H](NC(=O)c1c(N)nn2cccnc12)c1cc2cccc(C#CCCNC(=O)[C@H]3CCC(=O)O3)c2c(=O)n1-c1ccccc1 [Compound 161]	1000 to 10000	> 10000	1000 to 10000	100 to 1000	< 100	< 100
C[C@H](NC(=O)c1c(N)nn2cccnc12)c1cc2cccc(C#CCNC(=O)C3CCC(=O)C3)c2c(=O)n1-c1ccccc1 (stereo partly drawn) [Compound 162]	100 to 1000	1000 to 10000	1000 to 10000	< 100	< 100	< 100
C[C@H](NC(=O)c1c(N)nn2cccnc12)c1cc2cccc(C#CCNC(=O)c3ccc(C#N)o3)c2c(=O)n1-c1ccccc1 [Compound 164]	100 to 1000	1000 to 10000	1000 to 10000	100 to 1000	< 100	< 100
CC(=O)NCC#Cc1cccc2cc([C@H](C)NC(=O)c3c(N)nn4cccnc34)n(-c3ccccc3)c(=O)c12 [Compound 165]	1000 to 10000	1000 to 10000	1000 to 10000	< 100	< 100	< 100
CC#Cc1cccc2cc([C@H](C)NC(=O)c3c(N)nn4cccnc34)n(-c3ccccc3)c(=O)c12 [Compound 167]	1000 to 10000	1000 to 10000	1000 to 10000	< 100	< 100	< 100
C[C@H](NC(=O)c1nc(-c2cccc(NS(C)(=O)=O)c2)c(N)nc1N)c1cc2cccc(Cl)c2c(=O)n1-c1ccccc1 [Compound 169]	< 100	< 100	100 to 1000	< 100	< 100	< 100
C[C@H](NC(=O)c1nc(-c2cccc(NS(C)(=O)=O)c2)cnc1N)c1cc2cccc(Cl)c2c(=O)n1C1CC1 [Compound 171]	1000 to 10000	100 to 1000	1000 to 10000	< 100	< 100	< 100
CC(C)c1ccn2nc(N)c(C(=O)N[C@@H](C)c3cc4cccc(Cl)c4c(=O)n3-c3ccccc3)c2n1 [Compound 178]	> 10000	1000 to 10000	1000 to 10000	1000 to 10000	< 100	100 to 1000

The remaining lines, values ahead:

IC50 [1] [nM]	IC50 [2] [nM]	IC50 [3] [nM]	IC50 [4] [nM]	IC50 [5] [nM]	IC50 [6] [nM]	SMILES
> 10000	> 10000	> 10000	1000 to 10000	100 to 1000	1000 to 10000	C[C@H](NC(=O)c1c(N)nn2cccnc12)c1cc2cccc(N(C)C)c2c(=O)n1-c1ccccc1 [Compound 180]
100 to 1000	< 100	100 to 1000	< 100	< 100	< 100	C[C@H](NC(=O)c1nc(-c2cccc(NS(C)(=O)=O)c2)cnc1N)c1cc2cccc(Cl)c2c(=O)n1C [Compound 183]
> 10000	> 10000	> 10000	1000 to 10000	100 to 1000	1000 to 10000	C[C@H](NC(=O)c1c(N)nn2cccnc12)c1cc2cccc(N3CCOCC3)c2c(=O)n1-c1ccccc1 [Compound 184]
1000 to 10000	> 10000	1000 to 10000	100 to 1000	< 100	< 100	COc1cc(-c2cccc3cc([C@H](C)NC(=O)c4c(N)nn5ccc(C)nc45)n(-c4ccccc4)c(=O)c23)ccn1 [Compound 186]
1000 to 10000	1000 to 10000	1000 to 10000	100 to 1000	< 100	100 to 1000	C[C@H](NC(=O)c1c(N)nn2cccnc12)c1cc2cccc(C#CCNS(C)(=O)=O)c2c(=O)n1-c1ccccc1 [Compound 187]
1000 to 10000	> 10000	1000 to 10000	100 to 1000	< 100	100 to 1000	COc1cc(-c2cccc3cc([C@H](C)NC(=O)c4c(N)nn5cccnc45)n(-c4cccc(F)c4)c(=O)c23)ccn1 [Compound 189]
1000 to 10000	100 to 1000	100 to 1000	< 100	< 100	< 100	C[C@H](NC(=O)c1c(N)nn2cccnc12)c1cc2cccc(F)c2c(=O)n1-c1ccccc1 [Compound 191]
> 10000	> 10000	1000 to 10000	1000 to 10000	< 100	100 to 1000	C[C@H](NC(=O)c1c(N)nn2cccnc12)c1cc2cccc(C3CC3)c2c(=O)n1-c1ccccc1 [Compound 193]
